Results published in US11413278B2, “Compounds and methods for promoting stress resistance” (priority 2015, dated 2022).
Entries after “also recorded” stand apart in the source; their conditions may differ. Read-outs that look alike come from different tables or passages of the source.

Legend:
human PARP1 = molecular target: T1, human PARP1 (Homo sapiens, UniProt P09874); experiment: PARP inhibitor assay (HT Fluorescent Homogeneous PARP Inhibition Assay Kit); format: biochemical; settings: for L = PARP inhibition: score
T1 construct: purchased Trevigen
T1 sequence (P09874 whole entry): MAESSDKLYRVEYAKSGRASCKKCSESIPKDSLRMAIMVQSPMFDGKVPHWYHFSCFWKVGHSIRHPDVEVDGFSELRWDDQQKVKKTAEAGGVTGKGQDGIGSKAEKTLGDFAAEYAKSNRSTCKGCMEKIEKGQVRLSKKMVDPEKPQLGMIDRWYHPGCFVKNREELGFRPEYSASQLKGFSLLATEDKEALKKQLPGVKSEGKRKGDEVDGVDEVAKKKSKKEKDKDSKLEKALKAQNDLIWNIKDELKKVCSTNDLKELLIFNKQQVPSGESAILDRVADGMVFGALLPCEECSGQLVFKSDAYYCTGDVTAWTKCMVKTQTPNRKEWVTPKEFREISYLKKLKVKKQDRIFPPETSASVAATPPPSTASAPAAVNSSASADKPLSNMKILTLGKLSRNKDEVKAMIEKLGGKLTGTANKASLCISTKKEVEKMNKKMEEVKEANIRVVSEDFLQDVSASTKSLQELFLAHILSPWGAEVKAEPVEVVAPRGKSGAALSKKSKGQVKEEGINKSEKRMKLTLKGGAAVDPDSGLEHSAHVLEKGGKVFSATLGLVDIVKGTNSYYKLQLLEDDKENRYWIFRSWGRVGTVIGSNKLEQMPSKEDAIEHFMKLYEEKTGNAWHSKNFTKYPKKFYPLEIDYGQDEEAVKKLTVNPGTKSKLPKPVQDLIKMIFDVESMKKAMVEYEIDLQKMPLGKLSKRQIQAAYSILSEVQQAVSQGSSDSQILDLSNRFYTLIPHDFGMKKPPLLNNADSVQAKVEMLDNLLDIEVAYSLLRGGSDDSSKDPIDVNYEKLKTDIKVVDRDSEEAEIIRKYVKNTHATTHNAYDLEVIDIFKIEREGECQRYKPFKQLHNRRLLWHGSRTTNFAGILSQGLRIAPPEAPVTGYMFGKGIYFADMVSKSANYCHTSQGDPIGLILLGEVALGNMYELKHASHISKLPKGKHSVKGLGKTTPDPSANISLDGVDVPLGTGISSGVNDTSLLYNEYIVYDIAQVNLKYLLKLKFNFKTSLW
How it was run: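 Compounds (10 μM final) incubated 30 min, room temperature, dark, with human PARP1, nicotinamide adenine dinucleotide and activated DNA. Fluorescent signal generated by 1 hr cycling with diaphorase and resazurin, then reaction stopped.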

FOXO3 = experiment: qPCR analysis of FOXO3-regulated genes; format: cell-based, human; settings: for Induction of at least two of five FOXO3-regulated genes (SOD2, GADD45A, CAT, DDB1, TXNIP): WI-38; for fold induction at 10 µM: Homo sapiens; for K = Sestrin induction: score
How it was run: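 FOXO3 target-gene expression quantified by qPCR normalised to B2M, PPIA and GAPDH, in WI-38 cells after 24 h exposure to 10 μM compound. Some runs used cells first transfected 36 h with 10 nM FOXO3 or NRF2 siRNA and replated ~24 h before dosing.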

C. elegans = format: in vivo, Caenorhabditis elegans; settings: in vivo
How it was run: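 Survival under oxidative stress: 500 μM H2O2 (final) was added to day-4 adults kept in liquid with compounds, FUdR present, 4 wells per molecule and 0.2% DMSO controls, with daily scoring of viability.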

[1] = 24 h, Assay 10(m), at 10 uM, qPCR, read-out: Induction of FOXO3-regulated genes: SESN1 normalized fold-change
[2] = WI-38, 24 h, read-out: SESN1 expression
[3] = 10 μM, 24 hrs, WI-38 cells, qPCR, normalized to B2M, n = 4, read-out: SESN1 expression, normalized fold change (FOXO3-regulated gene)
[4] = WI-38 cells, 10 μM, 24 hrs, n=4, qPCR normalized by B2M, read-out: DDB1 Normalized fold change
[5] = WI-38 cells, 10 μM, 24 hrs, n=4, qPCR normalized by B2M, read-out: GADD45A Normalized fold change
[6] = WI-38 cells, 10 μM, 24 hrs, n=4, qPCR normalized by B2M, read-out: SESN1 Normalized fold change
[7] = fold change, qPCR, WI-38 cells, 10 μM, 24 hrs, read-out: Summary of effects on FOXO3-regulated genes: SESN1
[8] = qPCR, WI-38 cells, 10 μM, n=4, 24 hrs, normalized by B2M, read-out: CAT Normalized fold change
[9] = qPCR, WI-38 cells, 10 μM, n=4, 24 hrs, normalized by B2M, read-out: SOD2 Normalized fold change
[10] = qPCR, WI-38 cells, 10 μM, n=4, 24 hrs, normalized by B2M, read-out: TXNIP Normalized fold change
[11] = 24 h, Assay 10(m), at 10 uM, qPCR, read-out: Induction of FOXO3-regulated genes: GADD45A normalized fold-change
[12] = 10 μM, 24 hrs, WI-38 cells, qPCR, normalized to B2M, n = 4, read-out: GADD45A expression, normalized fold change (FOXO3-regulated gene)
[13] = fold change, qPCR, WI-38 cells, 10 μM, 24 hrs, read-out: Summary of effects on FOXO3-regulated genes: GADD45A

| Structure (SMILES) | L = PARP inhibition (human PARP1) | Induction of at least two of five FOXO3-regulated genes (SOD2, GADD45A, CAT, DDB1, TXNIP) (FOXO3; 10 μM, 24 hrs) | E = Potential FOXO3 Activation (FOXO3; 2-point score) | fold induction at 10 µM (FOXO3; [1]) | fold induction at 10 µM (FOXO3; [2]) | fold induction at 10 µM (FOXO3; [3]) | fold induction at 10 µM (FOXO3; [4]) | fold induction at 10 µM (FOXO3; [5]) | fold induction at 10 µM (FOXO3; [6]) | fold induction at 10 µM (FOXO3; [7]) | fold induction at 10 µM (FOXO3; [8]) | fold induction at 10 µM (FOXO3; [9]) | fold induction at 10 µM (FOXO3; [10]) | K = Sestrin induction (FOXO3) | E = Potential FOXO3 Activation (FOXO3; summary score) | L = H2O2-resistance in worms (C. elegans) | N = H2O2-resistance in woms (C. elegans) | fold induction at 10 µM (FOXO3; [11]) | fold induction at 10 µM (FOXO3; [12]) | fold induction at 10 µM (FOXO3; [13]) | other results |
| --- | --- | --- | --- | --- | --- | --- | --- | --- | --- | --- | --- | --- | --- | --- | --- | --- | --- | --- | --- | --- | --- |
| COC(=O)CCc1sc2c(c1[N+](=O)[O-])NC(=O)CCC2 [O20] | 0 | significant induction; also recorded: significant, induction | 0 | 1.73 | > 1.5 | 1.73 | 1.25 | 1.04 | 1.73 | 1.73 | 1.35 | 1.09 | 1.12 | 1 | 0 | 0 | 0 |  |  |  | fold induction at 10 µM (FOXO3; 24 h, Assay 10(m), at 10 uM, qPCR, read-out: Induction of FOXO3-regulated genes: CAT normalized fold-change): 1.35; fold induction at 10 µM (FOXO3; 24 h, Assay 10(m), at 10 uM, qPCR, read-out: Induction of FOXO3-regulated genes: DDB1 normalized fold-change): 1.25; fold induction at 10 µM (FOXO3; 10 μM, 24 hrs, WI-38 cells, qPCR, normalized to B2M, n = 4, read-out: CAT expression, normalized fold change (FOXO3-regulated gene)): 1.35; fold induction at 10 µM (FOXO3; 10 μM, 24 hrs, WI-38 cells, qPCR, normalized to B2M, n = 4, read-out: DDB1 expression, normalized fold change (FOXO3-regulated gene)): 1.25; fold induction at 10 µM (FOXO3; fold change, qPCR, WI-38 cells, 10 μM, 24 hrs, read-out: Summary of effects on FOXO3-regulated genes: CAT): 1.35; fold induction at 10 µM (FOXO3; fold change, qPCR, WI-38 cells, 10 μM, 24 hrs, read-out: Summary of effects on FOXO3-regulated genes: DDB1): 1.25 |
| COc1ccc(/C=C2\SC(=N)N(c3nccs3)C2=O)cc1 [O21] | 0 |  | 0 | 1.88 | > 1.5 | 1.88 | 1.45 | 2.06 | 1.88 | 1.88 | 1.3 | 1.12 | 0.9 | 1 | 0 | 0 | 0 |  |  |  |  |
| CC(C)(C)c1ccc(OCC(=O)Nc2ccc3c4c(cccc24)C(=O)NC3=O)cc1 [O22] | 1 |  | 0 |  |  |  | 1.04 | 1.23 | 1.29 |  | 1.04 | 1.02 | 0.742 | 0 | 0 | 0 | 0 | 1.23 | 1.23 | 1.23 | Inhibition of PARP1 (human PARP1; 10 μM, in vitro): confirmed as PARP inhibitors; also recorded: inhibitors of PARP1 |
| COc1cccc(/C=C2\CN(C)C/C(=C\c3cccc(OC)c3OC)C2=O)c1OC [O23] | 0 | induce FOXO3-regulated genes | 2 |  |  |  | 1.26 | 7.22 | 0.799 |  | 0.89 | 2.04 | 0.071 | 0 | 2 | 0 | 0 | 7.22 | 7.22 | 7.22 | SOD2 expression, normalized fold change (FOXO3-regulated gene) (FOXO3; 10 μM, 24 hrs, WI-38 cells, qPCR, normalized to B2M, n = 4): SOD2 2.04 fold; Potential FOXO3 Activation (>=2 target genes induced, by >=1.5-fold) (FOXO3; Assay 11(n)): YES; fold induction at 10 µM (FOXO3; 24 h, Assay 10(m), at 10 uM, qPCR, read-out: Induction of FOXO3-regulated genes: SOD2 normalized fold-change): 2.04; fold induction at 10 µM (FOXO3; 24 h, Assay 10(m), at 10 uM, qPCR, read-out: Induction of FOXO3-regulated genes: TXNIP normalized fold-change): 0.07; fold induction at 10 µM (FOXO3; 10 μM, 24 hrs, WI-38 cells, qPCR, normalized to B2M, n = 4, read-out: TXNIP expression, normalized fold change (FOXO3-regulated gene)): 0.07; fold induction at 10 µM (FOXO3; fold change, qPCR, WI-38 cells, 10 μM, 24 hrs, read-out: Summary of effects on FOXO3-regulated genes: TXNIP): 0.07; Summary of effects on FOXO3-regulated genes: SOD2 (FOXO3; fold change, qPCR, WI-38 cells, 10 μM, 24 hrs): SOD2 2.04; H2O2-resistance assay, 1st experiment (C. elegans): YES; |
